Assay results from patent US4925870A, “Therapeutic use of proanthocyanidine A2 as a cytoprotective agent” (Inverni Della Beffa SpA, priority 1985, dated 1990).
“Also recorded” adds a separate entry of the source.

Legend:
[1] = Wound healing activity on prednisone treated rats by topical application; format: in vivo
From the text: (§1) The triterpene fraction obtained from Centella asiatica (CATS), a well-known cicatrizant or healing agent widely used in some European countries, has been chosen as comparison drug.

[2] = Healing (cicatrising) activity, general statement (topical and oral route, normal and steroid treated animals); conditions: in vivo
[3] = Wound healing activity by oral route in rats treated with prednisone; format: in vivo; conditions: for Surface after 3 days of administrations (m ± s.e.) / percent variation of surface in comparison with prednisone controls: oral; for percent variation of surface in comparison with prednisone controls: after 3 days
From the text: as §1

rat brain homogenate = experiment: In vitro inhibition of lipid peroxidation (MDA formation) on rat brain homogenate; format: biochemical; conditions: for IC50: rat brain homogenate
Experimental: (§2) Proanthocyanidine A2 was assayed for anti-lipid peroxidation activity "in vitro" on rat brain homogenate according to the method of Saeed S. A. et al., Biochem. Soc. Trans 9, 442-443, 1981 and on rat hepatic microsomes according to the method of Jha H. C. et al., Biochem. Pharmacol. 34 , 1367-1369, 1985. […] This activity was confirmed on a rat brain "ex vivo" test.

[4] = Acute toxicity in the mouse; conditions: for LD50: mouse, in vivo
Experimental: (§3) The acute toxicity of proanthocyanidine A2 was determined in the mouse and rat on administration by the oral and intreperitoneal routes.

rat hepatic microsomes [5] = experiment: In vitro inhibition of lipid peroxidation (MDA formation) on rat hepatic microsomes; format: biochemical; conditions: for IC50: in vitro, rat hepatic microsomes + NADPH + Fe^2+ ADP
[6] = Acute toxicity on topical administration; conditions: administered topically
rat hepatic microsomes [7] = experiment: NADPH consumption by hepatic microsomes; format: biochemical; conditions: for IC50: NADPH 500 μM + Fe^2+ 20 μM + ADP 500 μM
[8] = Capillary resistance in rats fed on vitamin P deprived diet; format: in vivo; conditions: for Percent increase (capillary resistance) in comparison with controls: n = 8
Experimental: The latter was evaluated by the method of Charlier R. et al., Arch. Int. Physiol. Bioch.

rat brain = experiment: Rat brain ex vivo anti-lipid peroxidation test
Experimental: as §2

[9] = Activity on wound scar resistance in normal mice by oral route (force necessary for breaking a cutaneous scar); format: in vivo; conditions: n = 20
From the text: The method used was that of Sixth et al., Arzneim. Forsch. 18, 1460, 1968.

[10] = Acute toxicity in the rat; conditions: in vivo
Experimental: as §3

[11] = Anti-ulcer activity after i.p. administration on ASA induced gastric ulcers in rats; format: in vivo; conditions: for Changes in U.I. in comparison with controls / No. of stomach without lesions / Ulceration index (U.I.) mean: i.p., n = 10
From the text: This activity is believed to be a consequence of its healing activity and microcirculation protecting activity.

Oc1cc(O)c2c(c1)O[C@@]1(c3ccc(O)c(O)c3)Oc3cc(O)c4c(c3[C@@H]2[C@H]1O)O[C@H](c1ccc(O)c(O)c1)[C@H](O)C4 [Proanthocyanidine A2]
Wound area (m ± s.e.) ([1]; concentration 1%, day 0 (baseline), n = 10): 324.55 ± 3.77 mm^2 | percent variation of wound area in comparison with prednisone controls ([1]; concentration 1%, day 1): -8.17% | Wound area (m ± s.e.) ([1]; concentration 1%, day 1, n = 10): 317.39 ± 3.37 mm^2 | percent variation of wound area in comparison with prednisone controls ([1]; concentration 1%, day 2): -9.70% | Wound area (m ± s.e.) ([1]; concentration 1%, day 2, n = 10): 315.04 ± 3.58 mm^2 | percent variation of wound area in comparison with prednisone controls ([1]; concentration 1%, day 3): -9.60% | Wound area (m ± s.e.) ([1]; concentration 1%, day 3, n = 10): 308.01 ± 3.77 mm^2 | Wound area (m ± s.e.) ([1]; concentration 2%, day 0 (baseline), n = 10): 327.71 ± 2.92 mm^2 | percent variation of wound area in comparison with prednisone controls ([1]; concentration 2%, day 1): -8.17% | Wound area (m ± s.e.) ([1]; concentration 2%, day 1, n = 10): 317.39 ± 3.36 mm^2 | percent variation of wound area in comparison with prednisone controls ([1]; concentration 2%, day 2): -12.38% | Wound area (m ± s.e.) ([1]; concentration 2%, day 2, n = 10): 305.69 ± 3.89 mm^2 | percent variation of wound area in comparison with prednisone controls ([1]; concentration 2%, day 3): -15.88% | Wound area (m ± s.e.) ([1]; concentration 2%, day 3, n = 10): 286.62 ± 3.74 mm^2 | healing activity (in words) [2]: higher than that of known drugs employed in this therapeutic field; also recorded: manifests itself by the topical and also oral route both in normal animals and in animals in which the healing process has been slowed down by treatment with steroids; also recorded: superior to that of known drugs employed in this field | Surface after 3 days of administrations (m ± s.e.) ([3]; 50 mg/kg): 280.47 ± 7.01 mm^2 | percent variation of surface in comparison with prednisone controls ([3]; 50 mg/kg): -9.15% | Surface after 3 days of administrations (m ± s.e.) ([3]; 100 mg/kg): 271.82 ± 5.35 mm^2 | percent variation of surface in comparison with prednisone controls ([3]; 100 mg/kg): -11.95% | Surface after 3 days of administrations (m ± s.e.) ([3]; 200 mg/kg): 265.88 ± 4.38 mm^2 | percent variation of surface in comparison with prednisone controls ([3]; 200 mg/kg): -13.87% | Surface after 3 days of administrations (m ± s.e.) ([3]; 400 mg/kg): 259.99 ± 7.72 mm^2 | percent variation of surface in comparison with prednisone controls ([3]; 400 mg/kg): -15.78% | reduction of the area of wounds (in words) ([3]; rats, Tables 2 and 3): favourable effect | anti-lipid peroxidation activity (in words) (rat brain homogenate): strong anti-lipid peroxidation activity | IC50 (rat brain homogenate; in vitro): 0.45 µM | inhibition of MDA (malondialdehyde) formation (in words) (rat brain homogenate; in vitro, rat brain homogenate and rat hepatic microsomes): strongly inhibited | LD50 ([4]; ip): > 6000 mg/kg | LD50 ([4]; po): > 6000 mg/kg | acute toxicity (in words) ([4]; oral and intraperitoneal routes, mouse and rat): does not exhibit significant acute toxicity | column headed by drawing 2 under MDA formation (ratio of hepatic microsomes IC50 to brain homogenate IC50, by arithmetic) (rat hepatic microsomes [5]): 1.8 | IC50 (rat hepatic microsomes [5]): 0.8 µM | acute toxicity (in words) [6]: negligable acute toxicity | IC50 (rat hepatic microsomes [7]): 14 µM | column headed by drawing 3 (hepatic microsomes) (ratio of NADPH consumption IC50 to MDA formation IC50, by arithmetic) (rat hepatic microsomes [7]; hepatic microsomes): 17.5 | inhibiting activity on NADPH consumption (in words) (rat hepatic microsomes [7]; in vitro, hepatic microsomes): low inhibiting activity | vasotropic / venotonic activity (in words) ([8]; capillary permeability and resistance): possesses a vasotropic activity in terms of modification of capillary permeability and resistance; also recorded: normalizing conditions of impaired capillary permeability and capillary fragility | Percent increase (capillary resistance) in comparison with controls ([8]; oral 200 mg/kg × 3 days, 0 hours after third administration): 5% | Percent increase (capillary resistance) in comparison with controls ([8]; oral 200 mg/kg × 3 days, 2 hours after third administration): 9% | Percent increase (capillary resistance) in comparison with controls ([8]; oral 200 mg/kg × 3 days, 4 hours after third administration): 9% | Percent increase (capillary resistance) in comparison with controls ([8]; oral 200 mg/kg × 3 days, 6 hours after third administration): 6% | Percent increase (capillary resistance) in comparison with controls ([8]; oral 400 mg/kg × 3 days, 0 hours after third administration): 7% | Percent increase (capillary resistance) in comparison with controls ([8]; oral 400 mg/kg × 3 days, 2 hours after third administration): 15% | Percent increase (capillary resistance) in comparison with controls ([8]; oral 400 mg/kg × 3 days, 4 hours after third administration): 14% | Percent increase (capillary resistance) in comparison with controls ([8]; oral 400 mg/kg × 3 days, 6 hours after third administration): 13% | anti-lipid peroxidation activity ex vivo (in words) (rat brain): confirmed | Percent increase in comparison (with controls) ([9]; 100 mg/kg): +32.5% | Tension (m + S.E.) ([9]; 100 mg/kg): 104.11 + 4.25 g | Percent increase in comparison (with controls) ([9]; 200 mg/kg): +46.6% | Tension (m + S.E.) ([9]; 200 mg/kg): 115.12 + 4.90 g | LD50 ([10]; ip): > 3000 mg/kg | LD50 ([10]; po): > 6000 mg/kg | Changes in U.I. in comparison with controls ([11]; 100 mg/kg): -18,4 | No. of stomach without lesions ([11]; 100 mg/kg): 0 | Ulceration index (U.I.) mean ([11]; 100 mg/kg): 39,6 | Changes in U.I. in comparison with controls ([11]; 200 mg/kg): -28,1 | No. of stomach without lesions ([11]; 200 mg/kg): 0 | Ulceration index (U.I.) mean ([11]; 200 mg/kg): 34,9 | Changes in U.I. in comparison with controls ([11]; 400 mg/kg): -40,8 | No. of stomach without lesions ([11]; 400 mg/kg): 0 | Ulceration index (U.I.) mean ([11]; 400 mg/kg): 28,7 | anti-ulcer activity (in words) ([11]; ulcer protection tests): active in ulcer protection tests; also recorded: particularly active as an anti-ulcer agent

O=c1c(O)c(-c2ccc(O)c(O)c2)oc2cc(O)cc(O)c12 [Quercetin, reference compound]
IC50 (rat brain homogenate; in vitro): 0.9 µM | column headed by drawing 2 under MDA formation (ratio of hepatic microsomes IC50 to brain homogenate IC50, by arithmetic) (rat hepatic microsomes [5]): 5.7 | IC50 (rat hepatic microsomes [5]): 5.1 µM | IC50 (rat hepatic microsomes [7]): 17 µM | column headed by drawing 3 (hepatic microsomes) (ratio of NADPH consumption IC50 to MDA formation IC50, by arithmetic) (rat hepatic microsomes [7]; hepatic microsomes): 3.3
